One test concerns the target T1, CD209 tetramer (Homo sapiens, UniProt Q9NNX6).
T1 sequence (Q9NNX6 59-404 limits assumed): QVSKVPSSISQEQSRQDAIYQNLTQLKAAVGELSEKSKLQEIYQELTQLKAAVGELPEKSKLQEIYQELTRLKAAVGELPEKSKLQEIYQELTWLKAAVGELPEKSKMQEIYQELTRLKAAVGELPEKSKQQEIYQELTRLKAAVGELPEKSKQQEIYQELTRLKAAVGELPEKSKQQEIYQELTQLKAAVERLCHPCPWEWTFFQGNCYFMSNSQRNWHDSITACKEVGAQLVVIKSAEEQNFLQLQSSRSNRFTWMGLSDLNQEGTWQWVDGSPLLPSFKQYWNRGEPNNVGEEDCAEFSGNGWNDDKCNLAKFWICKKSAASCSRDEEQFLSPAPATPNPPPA
To be noted: concentration required to inhibit, by 50%, the binding of a fluorescently labeled mannosylated glycoconjugate to CD209 tetramer; cited from earlier work.

In the next test the target is T2, CD209 (Homo sapiens, UniProt Q9NNX6).
T2 sequence (Q9NNX6 1-404): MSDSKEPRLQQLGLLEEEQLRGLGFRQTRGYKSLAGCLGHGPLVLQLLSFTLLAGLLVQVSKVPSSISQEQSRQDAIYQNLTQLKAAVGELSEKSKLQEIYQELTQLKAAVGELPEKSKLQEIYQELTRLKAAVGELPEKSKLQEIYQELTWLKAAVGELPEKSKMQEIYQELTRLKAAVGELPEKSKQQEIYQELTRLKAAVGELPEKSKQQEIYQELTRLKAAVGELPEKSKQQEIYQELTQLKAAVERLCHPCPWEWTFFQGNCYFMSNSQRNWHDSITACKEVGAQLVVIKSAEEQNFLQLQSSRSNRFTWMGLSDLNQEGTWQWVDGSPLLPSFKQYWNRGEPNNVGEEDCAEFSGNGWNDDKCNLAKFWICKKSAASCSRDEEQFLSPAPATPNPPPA
To be noted: read-out: affinity for CD209, Kd; cited from earlier work.

In the next test the test system is human neutrophils. Nature of the test: human neutrophil adhesion to human fibronectin after TNF-α. Type of test: cell-based. To be noted: fibronectin-coated plate, FIG. 2. The source says:
Human blood was collected into EDTA tubes (BD Bioscience, San Jose, Calif.) from adult volunteers who gave written consent and with specific approval from the Texas A&M University human subjects Institutional Review Board. Neutrophils were then isolated from the blood using Lympholyte-poly (Cedarlane Laboratories, Hornby, BC, Canada) following the manufacturer's protocol and resuspended in 2% bovine serum albumen (BSA) (fraction V, A3059; Sigma-Aldrich) in RPMI 1640 medium (Lonza, Allendale, N.J.). 96-well tissue culture plates (flat-bottom polystyrene, BD Bioscience) were pre-coated with 20 μg/ml of human plasma fibronectin (Trevigen, Gaithersburg, Md.) in phosphate buffered saline (PBS) for 30 minutes at 37° C. and then blocked with 2% BSA in RPMI for 1 hour at 37° C. 50 microliters of 5×10^5 cells/ml neutrophils were incubated with 3 microgram/ml (0.5 microliters of the stock solution) of compound 1 or 3 for 30 minutes at 37° C. in a 1.5 ml Eppendorf tube (Eppendorf, Hauppauge, N.Y.). When testing the effect of CD209 antibodies on neutrophil adhesion to human fibronectin, anti-human CD209 antibodies clone DCN46 (BD Biosciences, San Jose, Calif.), eB-h209 (eBioscience, San Jose, Calif.), H-200 (Santa Cruz Biotechnology, Dallas, Tex.), ab89186 (Abcam, Cambridge, Mass.), or 9E9A8 (Biolegend Inc, San Diego, Calif.) were incubated with neutrophils at a concentration of 1 microgram/ml (0.2 microliters of the stock solution) or the concentration indicated on the figure. Rat IgG2a was used as an isotype control for the anti-human CD209 antibody clone eB-h209. Mouse IgG2b was used as an isotype control for the anti-human CD209 antibody clone DCN46. Mouse IgG1 was used as an isotype control for the anti-human CD209 antibody clone 9E9A8. Rabbit IgG was used as an isotype control for the two rabbit anti-human CD209 antibodies clone H-200 and ab89186. […] After removing the media and washing the plates 3 times with PBS, the plates were air-dried, fixed, stained, and the number of neutrophils that remained in the wells was counted. […]

For `CCCCC1C(=O)Nc2cc(C(=O)N3CCN(C)CC3)ccc2N1C` (stereo not shown) [Compound 11], the IC50 on CD209 tetramer is 329 µM.
Turning to `COc1ccccc1N1CCN(C(=O)c2ccc3c(c2)NC(=O)C(CCCc2ccccc2C)N3)CC1` (stereo not shown) [Compound 21], the IC50 on CD209 tetramer is 4.4 µM.
On to `CCC(=O)CCCC1C(=O)Nc2cc(C(=O)N3CCN(c4ccccc4)CC3)ccc2N1Cc1ccccc1` (stereo not shown) [Compound 14], for which, on CD209 tetramer, the IC50 was 170 µM.
Turning to `O=C(O)c1ccc(CCCC2Nc3ccc(C(=O)N4CCN(c5ccco5)CC4)cc3NC2=O)cc1` (stereo not shown) [Compound 20], at CD209 tetramer, the concentration for half-maximal inhibition (IC50) is 10 µM.
In the case of `O=C1Nc2cc(C(=O)N3CCN(c4ccccc4O)CC3)ccc2NC1CCCc1ccccc1` (stereo not shown) [Compound 15], the IC50 on CD209 tetramer was 113 µM.
Consider `O=C1Nc2cc(C(=O)N3CCN(c4ccccc4)CC3)ccc2NC1CSCc1c(F)cccc1Cl` (stereo not shown) [Compound 4], for which the equilibrium dissociation constant (Kd) on CD209 was 7.3 µM.
On to `Cc1ccc(N(C)S(=O)(=O)c2ccc3[nH]cc(C(=O)N4CCN(c5ccccc5)CC4)c(=O)c3c2)cc1C` [Compound 6], for which, on CD209, the Kd was 6.1 µM.
Take `CC(=O)Nc1cccc(CCCC2Nc3ccc(C(=O)N4CCN(c5cccc(C(F)(F)F)c5)CC4)cc3NC2=O)c1` (stereo not shown) [Compound 19]: the half-inhibitory concentration (IC50) on CD209 tetramer is 23 µM.
On to `CCN1c2ccc(C(=O)N3CCN(c4ncccn4)CC3)cc2NC(=O)C1CCCc1ccc(C(N)=O)cc1` (stereo not shown) [Compound 17], for which the IC50 at CD209 tetramer was 68 µM.
As for `O=C1Nc2cc(C(=O)N3CCN(c4ccccc4)CC3)ccc2NC1CCCc1ccccc1C(F)(F)F` (stereo not shown) [Compound 16], the IC50 at CD209 tetramer was 71 µM.
On to “SAP: Serum Amyloid P from EMD Millipore, known to inhibit neutrophil migration and adhesion [reference compound]”, for which, in the test on human neutrophils (10 microgram/ml SAP), the “neutrophil adhesion compared to the TNF-α control” value was “significantly reduced neutrophil adhesion”.
Regarding `NC(=O)c1ccc(CCCC2Nc3ccc(C(=O)N4CCN(c5ncccn5)CC4)cc3NC2=O)cc1` (stereo not shown) [Compound 22], the IC50 at CD209 tetramer was 2.6 µM.
As to `COC(=O)c1ccc(-c2ccc(C=C3C(=O)N(c4ccc(S(N)(=O)=O)cc4)N=C3C(F)(F)F)o2)cc1` [Compound 3], the “neutrophil adhesion compared to the TNF-α control” value in the test on human neutrophils (3 microgram/ml compound, 30 minutes) is “significantly reduced neutrophil adhesion”. Besides, the Kd on CD209 was 32 µM.
For the molecule `CCCOC(=O)c1ccc(-c2ccc(C=C3C(=O)N(c4ccc(S(N)(=O)=O)cc4)N=C3C(F)(F)F)o2)cc1` [Compound 2], on CD209, the Kd is 6.2 µM.
Turning to `CCCCCC1C(=O)Nc2cc(C(=O)N3CCN(CC)CC3)ccc2N1C` (stereo not shown) [Compound 10], on CD209 tetramer, the IC50 was 360 µM.
On to `CCCCCC1C(=O)Nc2cc(C(=O)N3CCN(CCC)CC3)ccc2N1CC` (stereo not shown) [Compound 9], for which the IC50 at CD209 tetramer was 370 µM.
For the molecule `CCCCC1Nc2ccc(C(=O)N3CCN(C)CC3)cc2NC1=O` (stereo not shown) [Compound 12], the IC50 at CD209 tetramer was 313 µM.
In the case of `CN1CCN(c2ccc(/C=C3\Sc4ccccc4C3=O)cc2[N+](=O)[O-])CC1` [Compound 7], the Kd at CD209 was 10 µM.
